Like-named read-outs stand apart in the source and are kept apart here.
What was measured:
FcDH [1] = target: T1, FcDH (Gluconobacter thailandicus, UniProt A0ABQ0IZX0); experiment: Oxidation products of substrates by purified FcDH, HPLC; type: biochemical, Gluconobacter oxydans IFO 3255; conditions: 0.5 g/dl substrate, NOX, catalase, 30° C., 16 hours
Experimental: Among the substrates recognized by FcDH, the oxidation product of L-fucitol is L-fuculose, and the oxidation products of the other substrates were examined. The substrates used were D-arabitol, D-mannitol and D-sorbitol. A reaction solution containing 0.5 g/dl of the substrate, 50 mM Gly-NaOH (pH 9.5), 1 mM NAD, 30 mM FAD, 5 mM MgCl2, 0.6 U/ml purified FcDH, 0.2 U/ml NOX, and 0.1 mg/ml catalase was reacted at 30° C. for 16 hours, and analyzed by HPLC (FIG. 13).

FcDH [2] = target: T1, FcDH; experiment: Bivalent metal ion specificity of FcDH; type: biochemical, Gluconobacter oxydans IFO 3255
[3] = target: T2, FcDH (L-fuculose-producing L-fucitol dehydrogenase) (Gluconobacter thailandicus, UniProt A0ABQ0IZX0); experiment: Substrate specificity of purified FcDH (kcat, Km by Lineweaver-Burk plot); type: biochemical, Gluconobacter oxydans IFO 3255; conditions: for substrate concentration at which a reduction of the specific activity (inhibition by the substrate) was observed: FIG. 12
T2 sequence (A0ABQ0IZX0 1-257): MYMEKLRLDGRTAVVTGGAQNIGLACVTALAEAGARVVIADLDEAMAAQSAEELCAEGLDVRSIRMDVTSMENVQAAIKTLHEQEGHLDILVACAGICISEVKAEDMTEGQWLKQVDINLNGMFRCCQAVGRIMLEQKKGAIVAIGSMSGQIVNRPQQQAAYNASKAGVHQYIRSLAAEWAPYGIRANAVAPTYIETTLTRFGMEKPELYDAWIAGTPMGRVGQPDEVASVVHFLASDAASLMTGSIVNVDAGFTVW
Experimental: The measurement was started when NAD was added. […] The measurement was performed consecutively three times.
Values of kcat and Km for each substrate were obtained by measuring the initial rate of the reaction with various substrate concentrations and drawing a Lineweaver-Burk plot of the results.
Lineweaver-Burk plots of the results in (A) and (B) are shown in FIG. 12 (C) and (D), respectively. The Km and kcat values were calculated from the range in which substrate inhibition was not observed, i.e., from a straight line represented by a broken line in FIG. 12 (C) and (D).

[4] = test system: L-fucitol dehydrogenase in cell free extract of G. oxydans IFO 3255 sldA:Kmr mutant strain; experiment: NAD(P)-dependent L-fucitol oxidation activity in cell free extract; type: biochemical, Gluconobacter oxydans IFO 3255 sldA:Kmr
Experimental: Subsequently, 1 ml of the medium was added to 50 ml of the same liquid medium, and cultured at 30° C. for 18 hours using a 500 ml Sakaguchi flask. The microbial cells were collected by centrifuging this medium, washed with 9 g/l of NaCl, and sonicated with 200 W for 10 minutes to yield the disrupted microbial cells. These cells were further centrifuged at 15,000 g for 15 minutes to yield the supernatant, which was then used as a cell-free extract. […] The experiment was also performed without L-fucitol as the control.

NOX (NADH oxidase) = NOX (NADH oxidase) (Gluconobacter thailandicus, UniProt A0ABQ0IUG6); experiment: NOX activity: NADH/NADPH and flavin coenzyme specificity; type: biochemical, Gluconobacter oxydans IFO 3255; conditions: for NOX activation effect of flavin coenzyme: flavin 0 to 300 μM, FIG. 19
Experimental: (§1) The change in absorbance in the first minute was taken as an initial rate, and the activity was calculated therefrom. The experimental group without the enzyme source was used as a blank. […] The measurement was taken three consecutive times. Their mean value was taken and is shown in the figure with the standard deviation.
The concentration of flavin in the reaction solution was 0 to 300 μM, and the others were adjusted to standard conditions.
The Km value for the substrate was calculated by measuring the activity with a variety of substrate concentrations and drawing a Lineweaver-Burk plot of the results.

[5] = substrate: NC(=O)c1ccc[n+]([C@@H]2O[C@H](COP(=O)([O-])OP(=O)(O)OC[C@H]3O[C@@H](n4cnc5c(N)ncnc54)[C@H](O)[C@@H]3O)[C@@H](O)[C@H]2O)c1; experiment: NAD and NADP specificity of FcDH; type: biochemical, Gluconobacter oxydans IFO 3255; conditions: other: FcDH, Lineweaver-Burk plot, FIG. 14; pH 9.5; 30.0 °C
Experimental: The activity was measured by adding NAD or NADP at various concentrations under standard conditions. The Km value for each coenzyme was calculated by drawing a Lineweaver-Burk plot of the results (FIG. 14 (B)).

[6] = Experimental: The measurement was started when NAD was added. The change in absorbance in the first minute was taken as the initial rate, and the activity was calculated therefrom. […] The measurement was performed consecutively three times. Their mean value was taken and is shown in the figure with the standard deviation.
As pH buffers, sodium acetate buffer (pH 4.8, 5.7), potassium phosphate buffer (pH 6.4, 7.2), Tris-HCl buffer (pH 6.7, 7.6, 8.5), CAPS-NaOH buffer (Sodium cyclohexylaminopropanesulfonate) (pH 8.3, 9.5) and sodium carbonate buffer (pH 10.1, 10.7, 11.2) were used.
A solution containing 0.1M pH buffer and 80 μg/ml purified FcDH was left to stand on ice for 30 minutes, and subsequently the solution was diluted to a final FcDH concentration of 1.6 μg/ml. The reaction was performed under standard conditions, and the remaining FcDH activity was measured.
A solution containing Gly-NaOH (pH 9.5), MgCl2, fucitol, and purified FcDH was preincubated at each temperature (25, 30, 37, 45, 55, or 65° C.) for 3 minutes, and then NAD that had been separately preincubated at each temperature was added thereto to start the reaction. The final concentrations in the reaction solution were adjusted to the standard conditions for activity measurement, and the final concentration of FcDH was 1.6 μg/ml.
A solution containing Gly-NaOH (pH 9.5) and 80 μg/ml purified FcDH was left to stand at 0, 25, 30, 37, 50 or 60° C. for 30 minutes. The solution was then diluted so that the final concentration of FcDH was 1.6 μg/ml. The reaction was performed under standard conditions, and the remaining FcDH activity was measured. The remaining activity of FcDH measured at each temperature is reported (FIG. 11) as the relative percentage as compared to the remaining activity when left to stand at 0° C.
(§2) The activity of the purified preparations of rFcDH and rNOX that had been purified as described above was also measured.

[7] = remark: listed apart in the source
Experimental: as §1
As pH buffers, sodium citrate buffer (pH 3.6, 4.7, 5.7), sodium acetate buffer (pH 4.8, 5.7), potassium phosphate buffer (pH 6.4, 7.2), Tris-HCl buffer (pH 6.7, 7.6, 8.5), and CAPS-NaOH buffer (pH 8.3, 9.5) were used.
as §2

[8] = 5 mM bivalent metal ion or EDTA
[9] = 5 mM bivalent metal ion or EDTA, relative to specific activity with MnCl2
[10] = substrate, Lineweaver-Burk plot

## OC[C@@H](O)[C@@H](O)[C@H](O)[C@@H](O)CO [D-SORBITOL, D-sorbitol]
FcDH [1]
  oxidation product identified by HPLC: L-sorbose

## [Cl][Cu][Cl] [CuCl2]
FcDH [2]; [8]
  effect on FcDH activity: inhibitory effect
FcDH [2]; [9]
  RELATIVE ACTIVITY (%): 5.0 ± 0.5%

## [Cl][Mn][Cl] [MnCl2]
FcDH [2]; [8]
  effect on FcDH activity: activation effect
FcDH [2]; [9]
  RELATIVE ACTIVITY (%): 100.0 ± 6.9%

## [Ca+2].[Cl-].[Cl-] [CaCl2]
FcDH [2]; [8]
  effect on FcDH activity: activation effect
FcDH [2]; [9]
  RELATIVE ACTIVITY (%): 89.9 ± 3.4%

## OC[C@@H](O)[C@@H](O)[C@H](O)[C@H](O)CO [D-MANNITOL, D-mannitol]
FcDH [1]
  oxidation product identified by HPLC: D-fructose

## [Cl-].[Cl-].[Co+2] [CoCl2]
FcDH [2]
  RELATIVE ACTIVITY (%): 34.8 ± 1.1%
  effect on FcDH activity: no effect

## OC[C@@H](O)C(O)[C@H](O)CO [D-ARABITOL, D-arabitol]
[3]
  substrate concentration at which a reduction of the specific activity (inhibition by the substrate) was observed: ≥ 5 mM
FcDH [1]
  oxidation product identified by HPLC: D-ribulose and D-xylulose

## C[C@H](O)[C@@H](O)[C@@H](O)[C@H](O)CO [L-FUCITOL, L-fucitol]
[3]
  substrate concentration at which a reduction of the specific activity (inhibition by the substrate) was observed: ≥ 100 mM
[4]; coenzyme NAD, pH 6.0
  Dehydrogenase activity: 3.1 ×10^−3 U/mg
[4]; coenzyme NAD, pH 8.8
  Dehydrogenase activity: 18.4 ×10^−3 U/mg
[4]; coenzyme NADP, pH 6.0
  Dehydrogenase activity: 0.0 ×10^−3 U/mg
[4]; coenzyme NADP, pH 8.8
  Dehydrogenase activity: 1.9 ×10^−3 U/mg

## NC(=O)C1=CN([C@@H]2O[C@H](COP(=O)(O)OP(=O)(O)OC[C@H]3O[C@@H](n4cnc5c(N)ncnc54)[C@H](OP(=O)(O)O)[C@@H]3O)[C@@H](O)[C@H]2O)C=CC1 [NADPH]
NOX (NADH oxidase); data not shown
  NOX activity with NADPH as the substrate: no significant activity

## [Cl-].[Cl-].[Mg+2] [MgCl2]
FcDH [2]; [8]
  effect on FcDH activity: activation effect
FcDH [2]; [9]
  RELATIVE ACTIVITY (%): 93.7 ± 2.9%

## Cc1cc2nc3c(=O)[nH]c(=O)nc-3n(C[C@H](O)[C@H](O)[C@H](O)CO)c2cc1C [riboflavin]
NOX (NADH oxidase)
  NOX activation effect of flavin coenzyme: NOX activation effect was observed

## [Cl][Ni][Cl] [NiCl2]
FcDH [2]; [8]
  effect on FcDH activity: no effect
FcDH [2]; [9]
  RELATIVE ACTIVITY (%): 42.4 ± 0.7%

## O=S(=O)([O-])[O-].[Zn+2] [ZnSO4]
FcDH [2]; [8]
  effect on FcDH activity: inhibitory effect
FcDH [2]; [9]
  RELATIVE ACTIVITY (%): 11.7 ± 0.5%

## OCC(O)CO [GLYCEROL, glycerol]
[3]; [10]
  Kcat: 0.9 U · mg−1
  Km: 10.1 mM

## Cc1cc2nc3c(=O)[nH]c(=O)nc-3n(C[C@H](O)[C@H](O)[C@H](O)COP(=O)(O)O)c2cc1C [FMN]
NOX (NADH oxidase)
  NOX activation effect of flavin coenzyme: relatively weaker

B1: FcDH (Gluconobacter thailandicus NBRC 3257) (protein)
chain: T2 sequence (A0ABQ0IZX0 1-257)
[5]
  Km: 0.20 mM

B2: FcDH: L-fuculose-producing L-fucitol dehydrogenase purified from G. oxydans IFO 3255, SEQ ID NO:16 (protein)
chain: T2 sequence (A0ABQ0IZX0 1-257)
modifications: Gluconobacter oxydans
[6]; 0.5 h
  remaining activity (temperature stability): ≥ 80%
[6]; FIG. 8, 30° C.
  pH of maximum specific activity: 9.5
[6]; FIG. 10, pH 9.5
  temperature of maximum specific activity: 37 °C
[6]; buffer, 0.5 h, pH 7.2
  remaining activity (pH stability): ≥ 80%
[6]; purified preparation, 10 mM L-fucitol, 1 mM NAD, pH 9.5, 30° C.
  specific activity of FcDH: 7.8 U/mg

B3: NOX: NADH oxidase purified from G. oxydans IFO 3255, SEQ ID NO:18 (protein)
chain: MTILNEQDFRRAMSHFATGVAVVTAKGSEGEQGATISALTSVSLDPLLLLICLHRGSSTYKAIAEAGRFGLSILNNSHKDVAMLFASRTADKFGSDVVVRAEDGTAFIDGALVQMHCELVETFQGGTHALFMARPTSITVRDEAPLLYFQGQLGVEA
modifications: Gluconobacter oxydans
[7]; 0.5 h
  remaining activity (temperature stability): ≥ 80%
[7]; FIG. 15, 30° C.
  pH of maximum specific activity: 5.7
[7]; FIG. 17, pH 8.0
  temperature of maximum specific activity: 37 °C
[7]; buffer, 0.5 h, pH 8.8
  remaining activity (pH stability): ≥ 80%
[7]; purified preparation, 0.2 mM NADH, 30 μM FAD, pH 8.0, 30° C.
  specific activity of NOX: 196 U/mg

Reference: patent publication US7575910B2, “Method for producing L-fuculose and method for producing L-fucose” (priority 2004, dated 2009)
